Laboratory results published in patent US20240390377A1, “COMPOSITION FOR THE PREVENTION OR TREATMENT OF NEURODEGENERATIVE OR MOTOR NEURON DISEASES COMPRISING HALOFUGINONE AS AN ACTIVE INGREDIENT” (CURAMYS CO., LTD., priority 2022, published 2024).

Legend:
C2C12 cells = assay: Immunocytochemical analysis of TGF-β1-stimulated C2C12 myoblasts; type: cell-based, mouse; details: low or high concentration halofuginone after TGF-β1 stimulation (FIG. 4c)
Experimental: Specifically, C2C12 cells were plated in 6-well plates with coverslips and stimulated with rhTGF-β1 in serum-free medium. After 24 hours of stimulation, the cells were treated with low or high concentrations of halofuginone in serum-free medium for 24 hours. The cells were washed three times with PBS and fixed in 4% paraformaldehyde at room temperature for 15 minutes. The fixed cells were then washed three times with PBS and treated with 0.5% Triton X-100 for 5 minutes. Subsequently, they were blocked with 5% bovine serum albumin in 0.3% PBS-T for 1 hour at room temperature. The cells were incubated with anti-α-SMA antibody (1:200; abcam cat #ab7817) and anti-MyoD antibody (1:200; Santa Cruz, cat #sc377460) in blocking buffer at 4° C. for 24 hours. After washing three times with PBS, the cells were incubated with Alexa Fluor secondary antibodies at room temperature for 1 hour. Nuclear DNA was stained with DAPI (4,6-diamino-2-phenylindole, 1:1,000; Sigma), washed twice with PBS, and coverslips were mounted on glass slides using a Dako fluorescence mounting medium (Dako). […] In addition, it was quantified in a blind manner using Leica Application Suite X software (Leica Microsystems). […]

[1] = tested on: G93A mutant SOD1 mouse-derived fibroblasts; assay: Real-time qRT-PCR analysis of ALS animal model-derived fibroblasts; type: cell-based; details: low or high concentration halofuginone for 24 hours; elevation vs Non-TG fibroblasts (FIG. 5a)
Source text: Specifically, primary fibroblasts were isolated from skeletal muscle of 120-day-old non-transformed or G93A mutant SOD1 transgenic mice of Example 4. The excised tissue was placed on 100-mm culture dishes containing HBSS (Hanks' Balanced Salt Solution; Gibco, cat #14175095) and penicillin-streptomycin (Cat #15070-063, Thermo Fisher Scientific) without calcium and magnesium. Muscle tissue was cut on ice blocks. Then, the tissue was cut into 1 mm pieces and enzymatically reacted with 0.2% IV type collagenase (Sigma) at 37° C. for 1 hour. The enzymatic reaction was stopped by the addition of 10 ml of FBS (Gibco). […]
Specifically, total RNA was isolated from C2C12 cells in Example 1, fibroblasts in Example 5, and the lumbar spinal cord of mice in Example 6 using the FavorPrep™ Tri-RNA Reagent (Favorgen). […] The concentration of total RNA was measured at 260 nm absorbance using a spectrophotometer (NanoDrop Spectrophotometer ND-2000, Thermo Scientific). cDNA was synthesized from 1 μg of total RNA using the ReverTra Ace-α™ (Toyobo) according to the manufacturers protocol. Quantitative RT-PCR was performed using the SYBR Green ExcelTaq™ 2× Fast Q-PCR Master Mix (TQ1200, Smobio) on a thermocycler (CFX Connect Real-Time PCR Detection System, BIO-RAD) with the primers listed in Table 3 below. […]

O=C(C[C@H]1NCCC[C@@H]1O)Cn1cnc2cc(Br)c(Cl)cc2c1=O (racemic) [halofuginone]
intensity of MyoD (immunofluorescence) (C2C12 cells): recovery
intensity of α-SMA (immunofluorescence) (C2C12 cells): reduction
elevated mRNA level of TGF-β, α-SMA and Col-I [1]: attenuated
